≈ marks a conversion by molar mass, not a printed value.
Tests used:
Test in all cases: MIC, CLSI broth microdilution, Test Example 1
Format in all cases: cell-based
[1] = tested on: A. baumannii SR27323; conditions: Acinetobacter baumannii, SR27323; OXA-23, OXA-58 carbapenemase producing strain; cation-adjusted Mueller Hinton broth containing human apo-transferrin; 5×10^5 cfu/mL; read-out: Minimum Inhibitory Concentration (MIC) A. baumannii SR27323
Experimental: (§1) Measurement of Minimum Inhibitory Concentration (MIC: μg/mL) was conducted according to CLSI (Clinical and Laboratory Standards Institute) method, and the amount of bacteria for inoculation was 5×10^5 cfu/mL, and cation-adjusted Mueller Hinton broth containing human apo-transferrin was used as a test medium, and the experiment was conducted using broth microdilution method. The bacteria used are listed below.

[2] = tested on: K. pneumoniae ATCCBAA-1705; conditions: Klebsiella pneumoniae, ATCCBAA1705; KPC-2 carbapenemase producing strain; cation-adjusted Mueller Hinton broth containing human apo-transferrin; 5×10^5 cfu/mL; read-out: Minimum Inhibitory Concentration (MIC) K. pneumoniae ATCCBAA-1705
Experimental: as §1

[3] = tested on: E. coli ATCCBAA-199; conditions: Escherichia coli, ATCCBAA199; SHV-3 ESBL producing strain; cation-adjusted Mueller Hinton broth containing human apo-transferrin; 5×10^5 cfu/mL; read-out: Minimum Inhibitory Concentration (MIC) E. coli ATCC BAA-199
Experimental: as §1

[4] = tested on: P. aeruginosa SR24837; conditions: Pseudomonas aeruginosa, SR24837; PER-1 ESBL producing strain; cation-adjusted Mueller Hinton broth containing human apo-transferrin; 5×10^5 cfu/mL; read-out: Minimum Inhibitory Concentration (MIC) P. aeruginosa SR24837
Experimental: as §1

[5] = tested on: E. coli ATCCBAA-200; conditions: Escherichia coli, ATCCBAA200; SHV-4 ESBL producing strain; cation-adjusted Mueller Hinton broth containing human apo-transferrin; 5×10^5 cfu/mL; read-out: Minimum Inhibitory Concentration (MIC) E. coli ATCC BAA-200
Experimental: as §1

[6] = tested on: P. aeruginosa SR27060; conditions: Pseudomonas aeruginosa, SR27060; IMP-1 MBL producing strain (carbapenem resistance strain); cation-adjusted Mueller Hinton broth containing human apo-transferrin; 5×10^5 cfu/mL; read-out: Minimum Inhibitory Concentration (MIC) P. aeruginosa SR27060
Experimental: as §1

[7] = tested on: P. aeruginosa SR24; conditions: Pseudomonas aeruginosa, SR24; Ceftazidime resistance strain; cation-adjusted Mueller Hinton broth containing human apo-transferrin; 5×10^5 cfu/mL; read-out: Minimum Inhibitory Concentration (MIC) P. aeruginosa SR24

Compound	MIC [1] [µg/mL]	MIC [2] [µg/mL]	MIC [3] [µg/mL]	MIC [4] [µg/mL]	MIC [5] [µg/mL]	MIC [6] [µg/mL]	MIC [7] [µg/mL]
CC(C)(O/N=C(\C(=O)N[C@@H]1C(=O)N2C(c3nnn[n-]3)=C(C[N+]3(C)[C@@H]4CC[C@H]3C[C@@H](NC(=O)c3cc(O)c(O)c(F)c3)C4)CS[C@H]12)c1csc(N)n1)C(=O)[O-].[Na+] (stereo partly shown) [Compound I-6]	2	≤ 0.031	0.25	1	0.5	0.5	0.25
CC(C)(O/N=C(\C(=O)N[C@@H]1C(=O)N2C(c3nnn[n-]3)=C(C[N+]3(CCNC(=O)c4ccc(O)c(O)c4Cl)CCCC3)C[S+]([O-])[C@H]12)c1csc(N)n1)C(=O)[O-].[Na+] (stereo partly shown) [Compound I-7]	16	0.063	0.25	1	0.5	4	2
CC(C)(O/N=C(\C(=O)N[C@@H]1C(=O)N2C(c3nnn[n-]3)=C(C[N+]34CCC(CNC(=O)c5cc(=O)c(O)c[nH]5)(CC3)CC4)CS[C@H]12)c1csc(N)n1)C(=O)[O-].[Na+] [Compound I-9]	1	0.063	0.25	2	0.5	4	0.25
CC(C)(O/N=C(\C(=O)N[C@@H]1C(=O)N2C(c3nnn[n-]3)=C(C[N+]34CCC(CNC(=O)c5ccc(O)c(O)c5Cl)(CC3)CC4)CS[C@H]12)c1csc(N)n1)C(=O)[O-].[Na+] [Compound I-10]	0.5	≤ 0.031	0.5	2	1	2	0.25
CC(C)(O/N=C(\C(=O)N[C@@H]1C(=O)N2C(c3nnn[n-]3)=C(C[N+](C)(C)CCNC(=O)c3ccc(O)c(O)c3Cl)CS[C@H]12)c1csc(N)n1)C(=O)[O-].[Na+] [Compound I-11]	0.25	≤ 0.031	0.125	0.063	0.5	1	0.25
CC(C)(O/N=C(\C(=O)N[C@@H]1C(=O)N2C(c3nnn[n-]3)=C(C[N+]34CCC[C@H]3CN(C(=O)c3cc(O)c(O)c(Cl)c3)CC4)CS[C@H]12)c1csc(N)n1)C(=O)[O-].[Na+] (stereo partly shown) [Compound I-13]	2	≤ 0.031	0.5	2	1	0.5	0.125
C[N+]1(CC2=C(c3nnn[n-]3)N3C(=O)[C@@H](NC(=O)/C(=N\O[C@@H](CC(=O)[O-])C(=O)[O-])c4csc(N)n4)[C@H]3SC2)[C@@H]2CC[C@H]1C[C@@H](NC(=O)c1ccc(O)c(O)c1Cl)C2.[Na+].[Na+] (stereo partly shown) [Compound I-14]	0.125	≤ 0.031	0.25	8	1	1	0.5
CC(C)(O/N=C(\C(=O)N[C@@H]1C(=O)N2C(c3nnn[n-]3)=C(C[n+]3ccc(NC(=O)c4ccc(O)c(O)c4Cl)cc3)CS[C@H]12)c1csc(N)n1)C(=O)[O-].[Na+] [Compound I-15]	≤ 0.031	≤ 0.031	0.063	≤ 0.031	0.25	0.5	0.125
CC(C)(O/N=C(\C(=O)N[C@@H]1C(=O)N2C(c3nnn[n-]3)=C(Cn3cc(NC(=O)c4ccc(O)c(O)c4Cl)[n+]4c3CCCC4)CS[C@H]12)c1csc(N)n1)C(=O)[O-].[Na+] [Compound I-16]	1	≤ 0.031	0.25	1	0.25	0.25	0.125
CC(C)(O/N=C(\C(=O)N[C@@H]1C(=O)N2C(c3nnn[n-]3)=C(C[N+]34CCC(CNC(=O)c5cc(=O)c(O)cn5O)(CC3)CC4)CS[C@H]12)c1csc(N)n1)C(=O)[O-].[Na+] [Compound I-18]	0.125	≤ 0.031	0.125	1	0.25	2	0.5
Cc1c(O)c(O)cc2cc[n+](CC3=C(c4nnn[n-]4)N4C(=O)[C@@H](NC(=O)/C(=N\OC(C)(C)C(=O)[O-])c5csc(N)n5)[C@H]4SC3)cc12.[Na+] [Compound I-22]	0.125	≤ 0.031	0.063	0.25	0.125	0.25	≤ 0.031
CC(C)(O/N=C(\C(=O)N[C@@H]1C(=O)N2C(c3nn[n-]n3)=C(C[N+]3(Cc4nnc(-c5ccc(O)c(O)c5Cl)o4)CCCC3)CS[C@H]12)c1csc(N)n1)C(=O)[O-].[Na+] [Compound I-45]	0.25	≤ 0.031	0.125	0.5	0.25	0.5	0.125
CC(C)(O/N=C(\C(=O)N[C@@H]1C(=O)N2C(c3nn[n-]n3)=C(C[N+]3(Cc4nc(-c5ccc(O)c(O)c5Cl)no4)CCCC3)CS[C@H]12)c1csc(N)n1)C(=O)[O-].[Na+] [Compound I-46]	0.5	≤ 0.031	0.125	1	0.5	0.5	0.25

Second part, the compound after the results:

MIC [1] [µg/mL]	MIC [2] [µg/mL]	MIC [3] [µg/mL]	MIC [4] [µg/mL]	MIC [5] [µg/mL]	MIC [6] [µg/mL]	MIC [7] [µg/mL]	Compound
0.25	0.063	0.5	0.5	1	1	0.125	CC(C)(O/N=C(\C(=O)N[C@@H]1C(=O)N2C(c3nn[n-]n3)=C(C[N+]3(C)CCC(NC(=O)c4ccc(O)c(O)c4Cl)CC3)CS[C@H]12)c1csc(N)n1)C(=O)[O-].[Na+] (stereo partly shown) [Compound I-47]
0.5	≤ 0.031	0.25	0.125	0.25	0.25	≤ 0.031	CC(C)(O/N=C(\C(=O)N[C@@H]1C(=O)N2C(c3nn[n-]n3)=C(C[n+]3ccc(C(=O)c4ccc(O)c(O)c4Cl)cc3)CS[C@H]12)c1csc(N)n1)C(=O)[O-].[Na+] [Compound I-48]
1	≤ 0.031	0.25	0.25	0.5	1	0.063	CC(C)(O/N=C(\C(=O)N[C@@H]1C(=O)N2C(c3nn[n-]n3)=C(C[n+]3ccc(NCc4ccc(O)c(O)c4Cl)cc3)CS[C@H]12)c1csc(N)n1)C(=O)[O-].[Na+] [Compound I-49]
1	≤ 0.031	0.25	2	0.5	1	0.25	CC(C)(O/N=C(\C(=O)N[C@@H]1C(=O)N2C(c3nnn[n-]3)=C(C[N+]3(CCNC(=O)c4cc(O)c(O)cc4Cl)CCCC3)CS[C@H]12)c1csc(N)n1)C(=O)[O-].[Na+] [Compound I-50]
1	≤ 0.031	0.125	2	0.5	1	0.25	CC(C)(O/N=C(\C(=O)N[C@@H]1C(=O)N2C(c3nnn[n-]3)=C(C[N+]3(CCNC(=O)c4cc(O)c(O)c(Cl)c4)CCCC3)CS[C@H]12)c1csc(N)n1)C(=O)[O-].[Na+] [Compound I-52]
1 (≈ 1.23 µM)	≤ 0.031	0.063 (≈ 0.0777 µM)	0.063 (≈ 0.0777 µM)	0.125 (≈ 0.154 µM)	0.5 (≈ 0.617 µM)	0.25 (≈ 0.308 µM)	CC(C)(O/N=C(\C(=O)N[C@@H]1C(=O)N2C(c3nnn[nH]3)=C(C[N+]3(CCNC(=O)c4cc(Cl)c(O)c(O)c4Cl)CCCC3)CS[C@H]12)c1csc(N)n1)C(=O)[O-] [Compound I-53]
1	≤ 0.031	0.25	0.25	0.5	0.25	≤ 0.031	CC(C)(O/N=C(\C(=O)N[C@@H]1C(=O)N2C(c3nnn[n-]3)=C(C[N+]3(CCNC(=O)c4ccc(O)c(O)c4F)CCCC3)CS[C@H]12)c1csc(N)n1)C(=O)[O-].[Na+] [Compound I-54]
2	≤ 0.031	0.25	0.5	1	1	0.25	CC(C)(O/N=C(\C(=O)N[C@@H]1C(=O)N2C(c3nnn[n-]3)=C(C[N+]3(CCNC(=O)c4cc(O)c(O)cc4F)CCCC3)CS[C@H]12)c1csc(N)n1)C(=O)[O-].[Na+] [Compound I-55]
0.5 (≈ 0.658 µM)	≤ 0.031	0.125 (≈ 0.165 µM)	0.25 (≈ 0.329 µM)	0.25 (≈ 0.329 µM)	0.5 (≈ 0.658 µM)	≤ 0.031	CC(C)(O/N=C(\C(=O)N[C@@H]1C(=O)N2C(c3nnn[nH]3)=C(C[N+]3(CCNC(=O)c4cc(O)c(O)c(F)c4)CCCC3)CS[C@H]12)c1csc(N)n1)C(=O)[O-] [Compound I-56]

From patent US9334289B2, “Cephem compound having catechol or pseudo-catechol structure” (SHIONOGI & CO., LTD., priority 2011, dated 2016)
